As usually defined, the melting point is the temperature of the solid-liquid transition. `CCOC(=O)C1=Cc2cc(SC)ccc2OC1C(F)(F)F` (stereo not drawn) displayed a melting point of 87.8 to 89.6 °C.

Regarding `O=C(O)C=CC=CCS(=O)(=O)c1ccccc1`, the melting point lay within 148 to 150 °C. `O=C(O)COc1nn(-c2ccccc2)cc1-c1ccccc1`: the melting point stood at 172 °C. On to `CCC/C=C/C(=O)NC(=O)OC(C)(C)C`, for which the melting point is 71 to 72 °C. With `CS(=O)(=O)NC1CCN(C(=O)Cn2nc(-c3ccncc3)cc2Cc2ccc(F)cc2)CC1`, the melting point is 128 to 139 °C. For `c1ccc(CN2C[C@@H]3SCCC(c4ccccc4)(c4ccccc4)[C@@H]3C2)cc1` (racemic) the value was 130 °C; for `Cc1cc(S(=O)(=O)Nc2onc(C)c2Br)c(C)s1`, 77 to 80 °C. Take `CC(C)(C)OC(=O)N[C@]1(C)CC[C@H](CS(=O)(=O)c2ccc(S(C)(=O)=O)cc2)C1(C)C`: the melting point lay in the range of 200 to 203 °C. For the molecule `CCCCNc1c(C(=O)OCC)cnc(O)c1C(C)=O`, the melting point lay within 134 to 136 °C. In the case of `CC1Oc2cc(CN3CCN(c4ccncc4)CC3)ccc2NC1=O` (stereo not drawn), the melting point lay in the range of 130 to 134 °C. `CP(=O)(O)CC1CC(Cl)=NO1` (stereo not drawn) came in with a melting point of 116 °C.

In the case of `O=c1ccc2c(n1CCc1ccccc1)CCCC2NCCc1ccc(Cl)c(Cl)c1` (stereo not drawn), the melting point was 120 to 122 °C. On to `O=C(O)CN1C(=O)c2cccc3c(C(=O)c4ccccc4)ccc(c23)C1=O`, for which the melting point lay within 310 to 312 °C. `COc1cc2c(Nc3ccc(Sc4nccn4C)c(Cl)c3)c(C#N)cnc2cc1OCCCN1CCC(N2CCCC2)CC1` gave a melting point of 196 to 198 °C. For the molecule `Cc1cc(C)cc(-c2nc(N)sc2-c2ccncc2)c1`, the melting point is 242 to 244 °C. On to `Cc1ccc(NC2CCCc3cc(C)cnc32)cc1` (stereo not drawn), for which the melting point lay within 83 to 85 °C. For `CCc1ccccc1-c1nc(-c2ccccc2)n[nH]1` the value was 124 to 126 °C; for `CC(=O)OCC1CC(OC(C)=O)C(n2cc(C(I)=CI)c(=O)[nH]c2=O)O1` (stereo not drawn), 75 to 77 °C; for `CC(=O)N1c2cc([N+](=O)[O-])ccc2[C@H]2Cc3ccc([N+](=O)[O-])cc3[C@H]21` (relative stereo), 264 to 266 °C. Molecule `COC(=O)NCCSc1cccc2nccn12` returned a melting point of 198 to 200 °C. `COC(=O)Cc1cc(C(=O)c2ccc3cc(-c4ccccc4)[nH]c3c2)sc1-c1ccccc1` yielded a melting point of 183 to 185 °C. In turn, `CCOC(=O)CCC(=O)c1cc(-c2ccccc2)nc2ccccc12` came in with a melting point of 66 °C. `CCCCC(=O)Nc1cscc1N` displayed a melting point of 110 °C. For `COc1ccc2c(c1)Cc1nnc(S(C)=O)n1C=C2` (stereo not drawn) the value was 176 to 177 °C. For the molecule `CC(C)C[C@H](N)C(=O)NCCCCNC(=O)OCc1ccccc1`, the melting point fell in the range of 137 to 139 °C. On to `CC(C)(C)C(O)C(=Cc1ccc2ccccc2c1)n1cncn1` (stereo not drawn), for which the melting point fell in the range of 122 to 124 °C. For the molecule `COc1ccc(N2CCN(c3ccc([N+](=O)[O-])cc3)CC2)cc1`, the melting point was 195 °C. Then `COc1cc(OCCCN2CCc3cc(OC)c(OC)cc3C2)ccc1NC(=O)c1cccc2c(=O)c3cccc(C)c3[nH]c12`, with 183 to 184 °C; and `Cc1oc(-c2ccccc2)nc1COc1ccc(C(=O)Nc2nn(-c3ccccc3)cc2C=O)cc1`, with 185 to 186 °C; and `CCCc1oc(-c2ccccc2)nc1COc1ccc(CO)cc1`, with 79 to 80 °C. `Cc1nc2ccc(F)cc2c(=O)n1C1CCC(=O)NC1=O` (stereo not drawn) registered a melting point of 273 to 275 °C.

`COC(COC(C)=O)C1(O)CCC2C3CCC4=CC(=O)CCC4(C)C3CCC21C` (stereo not drawn) displayed a melting point of 145 to 147 °C. `Cc1nc2cc(C#N)ccc2s1` registered a melting point of 158 to 160 °C.

`O=[N+]([O-])c1cccc(C2=NCc3n[nH]nc3-c3ccccc32)c1` yielded a melting point of 223 to 225 °C. Regarding `CNc1nc(Cl)nc2c(SC)ncnc12`, the melting point was 233 to 234 °C. As for `NC(=O)c1cc2ncccc2n1-c1ccc([N+](=O)[O-])cc1`, the melting point is > 260 °C. Then `CCOC(=O)CC(=O)Nc1nc(C)cs1`, with 138 to 141 °C; and `O=CCCCN1C(=O)c2ccccc2C1=O`, with 70 °C. For `COc1cc2c(=O)oc(=O)[nH]c2c(OC)c1OC` the value was 247 °C; for `O=C(O)c1cccc(-c2nc(-c3ccc(C(F)(F)F)cc3)co2)c1`, 206 to 208 °C; for `CCN1C(=O)NCC1c1ccc(OC)c(OC2CC3CCC2C3)c1` (stereo not drawn), 149 to 153 °C. `COc1ccc(Cc2cc(C3CCN(C(=O)NCc4ccccc4)CC3)nc(N)n2)cc1` returned a melting point of 128 to 131 °C.

The molecule `CCn1cc(C#Cc2cccc(OC)c2)cc1C(=O)O` registered a melting point of 129 °C. For the molecule `CC(=O)SCCC(=O)N1CCC=C1C(=O)OC(C)(C)C`, the melting point lay within 59 to 62 °C. `O=C(NC(CC1CCCC1)C(=O)NC1CCCN(S(=O)(=O)c2ccccc2)CC1=O)c1ccco1` (stereo not drawn) gave a melting point of 88 to 90 °C. `CN1C(=O)CCc2cccc(N3CCN(CCCCOc4ccc5c(n4)NC(=O)NCC5)CC3)c21` returned a melting point of 80 to 82 °C. `CCCCc1ccc(NCCS(=O)(=O)NCCCOc2cccc(CN3CCCCC3)c2)cc1` came in with a melting point of 115 to 119 °C. In turn, `CCCCOc1ccc(-c2nnc(Nc3ccc(Cl)c(Cl)c3)s2)cc1` had a melting point of 233 to 235 °C. Then `O=C(NC(=O)c1ccccc1Cl)Nc1cc(Cl)c(OC(F)(F)C(F)Cl)cc1Cl` (stereo not drawn), with 158 to 160 °C. As to `Nc1ccc(Sc2cc(I)nc(I)c2)cc1`, the melting point lay within 175 to 176 °C.

For the molecule `COc1cc(Cc2cc3cccc(-c4cccc(C(=O)NCCC#N)c4)c3s2)ccc1F`, the melting point fell in the range of 158 to 159 °C. `OC1(c2ccccc2)CCN(CCc2c[nH]c3ccccc23)CC1` returned a melting point of 133 to 137 °C. `Cn1ncc2c1-c1c(Cc3ccccc3)sc(C(N)=O)c1CC2` returned a melting point of 96 to 97 °C. Molecule `CC(C)(C)c1ccc(C(=O)NP(N)(N)=O)cc1` registered a melting point of 232 °C. Consider `CN(C)CCCOc1ccc(C[C@H](NC(=O)[C@@H]2CCCN2S(=O)(=O)c2cccs2)C(=O)O)cc1`, for which the melting point was > 200 °C.

Consider `O=C(O)c1ccc(OC(=O)c2ccc(O)c(C34CC5CC(CC(C5)C3)C4)c2)nc1`, for which the melting point is 112 to 113 °C. For `CN1CCN(C)C(c2ccc(Nc3nc(Br)cn(C)c3=O)cc2)C1=O` (stereo not drawn) the value was 206 to 207 °C; for `CCOc1cc2ncc(C#N)c(Nc3ccc(F)cc3C)c2cc1OCC`, 105 to 108 °C. `Fc1ccc2[nH]cc(CC3CCNCC3)c2c1` gave a melting point of 155 to 157 °C. `COCCOCCN1C(=O)C2(COc3cc4c(cc32)OCCO4)c2c(OC)ccc(OC)c21` (stereo not drawn) came in with a melting point of 109 to 110 °C. Turning to `CCCCn1c(=O)c2c(ncn2S(=O)(=O)CCCCl)n(CCCC)c1=O`, the melting point fell in the range of 71 to 73 °C. For `CS(=O)(=O)c1ccc(-c2cc(=O)n(C3CCCC3)nc2-c2ccc(F)cc2)cc1` the value was 191 to 192 °C.

Turning to `CCC(CC)n1nnc2cc(C)c(C)c([N+](=O)[O-])c21`, the melting point was 106 to 108 °C.

As for `Cc1ccc(C(=O)CCc2ccc(N3CCN(c4ccncc4)CC3)cc2)cc1`, the melting point is 114 to 115 °C. Take `Nc1cc(C(c2cc(F)ccc2F)S(=O)(=O)c2ccc(Cl)cc2)c(Br)cn1` (stereo not drawn): the melting point was in the range of 204 to 206 °C. `N#CSCSc1nc(Cl)c(Cl)nc1Cl` displayed a melting point of 90 to 93 °C. Molecule `CC(C)N1CCC(COc2ccc(-c3ccc(=O)[nH]n3)cn2)CC1` displayed a melting point of 188 to 191 °C. In turn, `Cc1ncc(CN2CC=C(C#Cc3ccccc3)CC2)c(N)n1` had a melting point of 187 to 188 °C.

Turning to `CCOC(=O)c1cc(Br)c(OCCO)c(-c2cccc(Cl)c2)c1`, the melting point lay in the range of 108 to 110 °C.

Consider `Cn1ccc(=O)c(O)c1CC(O)c1cccnc1` (stereo not drawn), for which the melting point was in the range of 215 to 220 °C. In turn, `CCSC(c1ccc(Cl)cc1Cl)C(C(=O)C(C)(C)CF)n1cncn1` (stereo not drawn) yielded a melting point of 130 °C. In turn, `CCCN(CCC)C(=O)c1cc(C(=O)N[C@@H](Cc2cc(F)cc(F)c2)[C@H](O)CNC2(c3cc(CN(C)C)ccn3)CC2)cc(-c2ncco2)c1` came in with a melting point of 70 to 72 °C. Molecule `CC(C)c1nsc(N=C(Cl)N(C)C)c1C#N` displayed a melting point of 72 to 75 °C. Molecule `CCOC(=O)c1cc(-c2nn3c(c2Cl)CCCC3)c(F)cc1Cl` displayed a melting point of 72 to 73 °C. Then `CN1CCN(C(=O)Nc2ccccc2C=Cc2cc(C(C)(C)C)c(O)c(C(C)(C)C)c2)CC1`, with 192 to 194 °C; and `N=C(N)c1c[nH]c2ccc(CCNC(=O)c3ccc(-c4ccnc(OCCN5CCCC5)n4)cc3)cc12`, with 104 to 105 °C; and `O=COC(Cc1ccccc1)C1C(=O)NC1SC(c1ccccc1)(c1ccccc1)c1ccccc1` (stereo not drawn), with 169 to 171 °C.

`COC(COc1ccc(C(=O)NCC(NC(=O)OCc2ccccc2)C(=O)OC(C)(C)C)cc1)OC` (stereo not drawn): the melting point came to 115 °C.

Regarding `Cc1cnc(Nc2nc(-c3ccccc3)nc3ccccc23)s1`, the melting point fell in the range of 215 to 216 °C. Then `CC(C)(C)OC(=O)NCc1[nH]c(=O)c2ccc(C#N)cc2c1-c1ccc(Cl)cc1`, with 234 to 235 °C; and `CN1CC(CCN2CCN(c3ncccn3)CC2)c2nc3ccccc3n2C1=O` (stereo not drawn), with 161 to 162 °C; and `Cc1ccc(Sc2ccnc3sccc23)cc1`, with 90 to 92 °C. `Nc1nc(O)c2c(n1)NCC(CN(C=O)Cc1ccc(C(=O)N[C@@H](CCC(=O)O)C(=O)O)cc1)C2` (stereo partly drawn) displayed a melting point of 178 °C. In the case of `CCCCCCCNC(=O)N(C)c1cccc(-c2ccc(C=C(C)C(=O)O)cc2OCCCC)c1`, the melting point is 70 to 72 °C. Take `CC1C(C(=O)O)CC2CC1C2(C)C` (single isomer, unassigned; (+)): the melting point is 128 °C. Then `C=CC(COC(c1ccccc1)(c1ccccc1)c1ccccc1)OCCCCCCCCCCCCCCCC` (stereo not drawn), with 34 °C; and `O=C(O)Cc1ccc2c(c1)C(=O)Cc1cccnc1O2`, with 181 to 184 °C; and `CC(=O)OC1(Cc2ccccn2)C(=O)N(N2CCOCC2)c2ccccc21` (stereo not drawn), with 107 to 110 °C.

(Values after a melting point compilation (Tetko et al.; mined from patent text by program, amines drawn as free bases though some values may be those of a salt).)
